Experimental findings from US10676474B2, “1,6-naphthyridine derivatives as CDK4/6 inhibitor” (CSTONE PHARMACEUTICALS, priority 2016, dated 2020) are described below.

The nature of data set [1]: Two-way permeability evaluation assay of Caco-2 cells. The following applies: human, Caco-2, pH 7.4. (In general: Passage across Caco-2 layers is used to estimate intestinal permeability.)
The test system of the next data set is Caco-2 cells. The data set is described as above. The following applies: Caco-2.
A further data set is described as follows: physchem. The conditions noted are these: phosphate buffer, pH 7.4, aqueous buffer, kinetic from dmso stock.
Data set [2] deals with colorectal cancer HCT-116 model. As to the kind of experiment: In vivo pharmacodynamic study (3), HCT-116 model, tumor volume. Details: species or system BALB/c nude mice. The conditions noted are these: 60 mg/kg(D0-D11), 120 mg/kg (D12-D20), PO, QD × 21. As to the method:
(§1) The in vivo pharmacodynamic experiments were performed on the BALB/c nude mice implanted subcutaneously with the colorectal cancer HCT-116 model.
(§2) BALB/c nude mice, female, 6-8 weeks, weighing approximately 18-22 g, were placed in a single ventilated cage (3-5 mice per cage) under a special pathogen free environment. All of the cages, beddings and water were disinfected before use. All of the animals were permitted free access to a standard certified commercial laboratory diet. A total of 48 mice purchased from Shanghai Lingchang Biotechnology Co., Ltd. were used for the study. Each mouse was implanted subcutaneously with 0.2 mL of 5×10^6 HCT-116 cells in the right back for tumor growth. The dosing in groups initiated when the average tumor volume reached about 132 mm^3. The tumor volume was measured twice a week using a two-dimensional caliper, and the volume was measured in mm^3, calculated by the following the formula: V=0.5 a×b^2, wherein, a and b were the long and short diameters of the tumor, respectively. The antitumor efficacy was determined by dividing the average increase in the tumor volume of the animals treated with the compound by the average increase in the tumor volume of the untreated animals.

The target of a further data set is T1, CDK4/cyclin D1 (Homo sapiens, UniProt P11802).
T1 construct: purchased Life technology
As to the kind of experiment: Enzyme activity assay CDK4/cyclin D1 (Lance Ultra). Type of data set: biochemical. The following applies: 0.3 nM CDK4/cyclin D1, 350 μM ATP, 180 minutes. As to the method:
(§3) CDK4/cyclin D1, CDK6/cyclin D1 (Life technology). ULight labeled polypeptide substrates ULight-4E-BP1 and ULight-MBP (PerkinElmer). Europium labeled anti-myelin basic protein antibody and europium labeled rabbit-derived antibody (PerkinElmer). Envision Multi-label Analyzer (PerkinElmer) for signal detection.
They were respectively dissolved in an enzyme buffer solution comprising: 50 mM hydroxyethylpiperazine ethanesulfuric acid solution at pH 7.5, 1 mM ethylenediaminetetraacetic acid, 10 mM magnesium chloride, 0.01% Brij-35, 2 mM dithiothreitol. After the reaction was begun, the OptiPlate 384-well plate was sealed with a top heat seal film TopSeal-A, and incubated at room temperature for 180 minutes.
(§4) The termination buffer solution of the enzymatic reaction was prepared, and EDTA was dissolved in a 1-fold diluted assay buffer solution. The reaction was terminated and incubated at room temperature for 5 minutes. 5 μL of the assay mixed solution (prepared with europium labeled anti-myelin basic protein antibody and europium labeled rabbit-derived antibody, respectively) was added to the reactions of CDK4/cyclin D1 and CDK6/cyclin D1, respectively, and incubated at room temperature for 60 minutes. The reaction signal was detected by Envision according to the time-resolved fluorescence resonance energy transfer theory.

For the next data set, the system named is NCI-H358 cells. Description: Cell viability assay NCI-H358 (CellTiter-Glo). Type of data set: cell-based. The following applies: Homo sapiens, 168 h; NCI-H358, incubated for 7 days. As to the method: The NCI-H358 cell line is from the cell bank of the Department of Biology of WuXi Apptec Co. Ltd. Envision Multi-Label Analyzer (PerkinElmer).
1) 100 μL of phosphate buffer solution was added to the peripheral wells of the 384-well plate and 40 μL of NCI-H358 cell suspension was added to the other wells containing 250 NCI-H358 cells. The cell plate was then placed in a carbon dioxide incubator and incubated overnight.
2) A 3-fold gradient dilution was subjected to the tested compounds using Echo. Each compound was diluted by 10 concentration gradients (diluted from 25 μM to 1.27 nM), 100 nL of which was added to the corresponding wells of the cell plate. The cell plate was then placed in a carbon dioxide incubator and incubated for 7 days.
3) 20 μL of Promega CellTiter-Glo reagent was added to each well of the cell plate, and shaken for 10 minutes away from light at room temperature to stabilize the luminescence signal. Readings were performed using a PerkinElmer Envision Multi-label Analyzer.
Table 1 provides the inhibitory activity of the compounds of the present invention against the proliferation of H358 cells.
(In general: In ATP-based viability assays light output follows the ATP content of the culture.)

Another data set addresses T2, CDK6/cyclin D1 (Homo sapiens, UniProt Q00534).
T2 construct: purchased Life technology
As to the kind of experiment: Enzyme activity assay CDK6/cyclin D1 (Lance Ultra). Type of data set: biochemical. The conditions noted are these: 0.8 nM CDK6/cyclin D1, 250 μM ATP, 180 minutes. As to the method: as §3
They were respectively dissolved in an enzyme buffer solution comprising: 50 mM hydroxyethylpiperazine ethanesulfuric acid solution at pH 7.5, 1 mM ethylenediaminetetraacetic acid, 10 mM magnesium chloride, 0.01% Brij-35, 2 mM dithiothreitol. After the reaction was started, the OptiPlate 384-well plate was sealed with a top heat seal film TopSeal-A and incubated at room temperature for 180 minutes.
as §4

Data set [3] can be described thus: Metabolic stability in rat liver microsomes. Type of data set: in vitro ADME. The conditions noted are these: 0.5 mg/mL protein, read-out: Rats T1/2. As to the method:
(§5) This assay is used to test the metabolic stability of tested substances in rats, mice and human liver microsomes.
(§6) 1) The tested compound with concentration of 1 μM was co-incubated with liver microsomes with a protein concentration of 0.5 mg/mL under a reducing coenzyme II regeneration system in a 37° C. water bath.
(§7) 2) The positive controls include: testosterone (3A4 substrate), propafenene (2D6 substrate) and diclofenac (2C9 substrate). The incubation condition of the positive controls was consistent with that of the compound.
(§8) 3) The reaction time points were: 0, 5, 10, 20, 30 and 60 minutes, and the reaction is terminated at the corresponding time point using a termination solution containing an internal standard. The compounds were also incubated with microsomes for 60 minutes without a reducing coenzyme II regeneration system and served as a negative control.
(§9) 4) Each time point was a single point (n=1).
(§10) 5) The sample was determined by LC/MS/MS, and the compound concentration was shown as the ratio of the peak area of the compound to the peak area of the internal standard (non-standard).
(§11) 6) In the project report summary, the half-life and the clearance rate would be calculated.

Data set [4] is described as follows: In vivo pharmacodynamic study (3), HCT-116 model, animal weight. Details: species or system BALB/c nude mice. The following applies: 60 mg/kg(D0-D11), 120 mg/kg (D12-D20), PO. As to the method:
as §1, §2

Data set [5] in a line: Metabolic stability in mouse liver microsomes. Type of data set: in vitro ADME. The following applies: 0.5 mg/mL protein, read-out: Mice T1/2. As to the method: as §5, §6, §7, §8, §9, §10, §11

Molecules are shown by their SMILES. Converted amounts (≈) assume the structure as drawn.

The Papp A→B is how fast a substance crosses the layer from the apical side. One may read the Papp B→A as the apparent permeability from the basolateral to the apical side of a cell layer. The term efflux ratio denotes a quotient of directional permeabilities that is used to spot active efflux. One may read the solubility (kinetic) as solubility judged after dilution from a stock solution rather than from solid. As a reminder, the IC50 is the concentration at which inhibition is half-maximal. A lower IC50 goes with greater potency in that assay.

T1 sequence (P11802 whole entry): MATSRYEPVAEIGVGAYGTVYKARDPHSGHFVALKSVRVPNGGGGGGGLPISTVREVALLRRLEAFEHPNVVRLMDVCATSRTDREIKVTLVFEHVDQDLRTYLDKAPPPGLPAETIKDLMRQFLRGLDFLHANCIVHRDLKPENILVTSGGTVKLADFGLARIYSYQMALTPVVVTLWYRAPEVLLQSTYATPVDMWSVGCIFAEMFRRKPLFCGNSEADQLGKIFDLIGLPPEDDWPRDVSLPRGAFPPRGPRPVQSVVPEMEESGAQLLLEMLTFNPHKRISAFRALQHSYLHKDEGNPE
T1 sequence (P24385 whole entry partner): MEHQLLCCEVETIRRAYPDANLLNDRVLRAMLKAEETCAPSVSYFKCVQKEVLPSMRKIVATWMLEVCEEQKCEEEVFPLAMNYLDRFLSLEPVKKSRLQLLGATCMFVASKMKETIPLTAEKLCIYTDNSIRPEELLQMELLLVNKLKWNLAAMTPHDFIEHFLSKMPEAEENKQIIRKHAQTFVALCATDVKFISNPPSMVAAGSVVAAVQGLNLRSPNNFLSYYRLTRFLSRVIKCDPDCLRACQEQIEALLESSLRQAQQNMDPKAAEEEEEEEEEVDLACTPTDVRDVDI
T2 sequence (Q00534 whole entry): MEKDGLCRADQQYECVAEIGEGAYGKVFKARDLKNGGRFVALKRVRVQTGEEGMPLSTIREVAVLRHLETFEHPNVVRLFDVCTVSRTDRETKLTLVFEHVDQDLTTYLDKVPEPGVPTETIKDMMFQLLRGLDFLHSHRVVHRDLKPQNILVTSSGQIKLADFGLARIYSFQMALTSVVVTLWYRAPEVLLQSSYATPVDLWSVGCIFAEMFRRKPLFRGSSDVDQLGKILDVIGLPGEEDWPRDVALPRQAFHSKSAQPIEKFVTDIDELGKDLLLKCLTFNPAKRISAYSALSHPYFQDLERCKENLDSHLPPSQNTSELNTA
T2 sequence (P24385 whole entry partner): as the sequence (P24385 whole entry partner) above

Take `CC(=O)c1c(C)c2cnc(Nc3cnc(N4CCN(CCN(C)C)CC4)cn3)cc2n(C2CCCC2)c1=O` [Example 34]: in data set [1], the apical-to-basolateral permeability (Papp A→B) at 2 h, 2 μM stood at 1.15 ×10⁻⁶ cm/s; the Papp B→A at 2 h, 2 μM is 16 ×10⁻⁶ cm/s; the efflux ratio at 2 h, 2 μM was determined as 14. Also, in the data set on Caco-2 cells, the “Category Efflux transporter substrate” value is on record as “Highly” and the “Category Permeability” value is “Low”. This compound also had a solubility (kinetic) at 24 h in “physchem” of 194 µM (≈ 101 µg/mL). Besides, in data set [2] (0 day), the “Gross tumor volume, 0 day” value is 132 mm^3. The “Gross tumor volume, 7 days” value in [2] (7 days) is reported as 416 mm^3. For the same compound, the “Gross tumor volume, 14 days” value in [2] (14 days) amounted to 695 mm^3. For the same compound, in [2] (21 days), the “Gross tumor volume, 21 days” value came to 963 mm^3. The IC50 against CDK4/cyclin D1 was 7.45 nM. The compound further returned an IC50 in the data set with NCI-H358 cells of 179 nM. For the same compound, at CDK6/cyclin D1, it took 3.65 nM to reach half-maximal inhibition (IC50). Besides, the half-life at 1 μM in [3] is greater than 145 min. For the same compound, the “Changes in animal weight, 0 day” value in data set [4] (QD × 21, 0 day) is 0%. Further, the “Changes in animal weight, 7 days” value in data set [4] (QD × 21, 7 days) is listed as 2.5%. Also, the “Changes in animal weight, 14 days” value in data set [4] (QD × 21, 14 days) is given as −2.3%. In addition, the “Changes in animal weight, 21 days” value in data set [4] (QD × 21, 21 days) was −5.9%. For the same compound, the half-life at 1 μM in data set [5] came to 40.2 min.
